Data from patent publication US8809541B2, “Heterocyclic compound, and composition for treating inflammatory diseases using same” (Neopharm Co., Ltd., priority 2010, dated 2014).

Legend:
nude mice (SKH-1) [1] = experiment: Recovery of acute skin barrier disruption (tape stripping); type: in vivo
Method: The recovery rate after acute skin barrier disruption was evaluated on a selected compound by using nude mice. Skins of both abdominal regions of each of 6-8 week aged nude mice (SKH-1) were subjected to repetitive tape stripping, so that transepidermal water loss reached a level of about 35˜40 g/m^2/hr, and then, respective samples were applied thereto. The transepidermal water loss was measured by using the TEWameter (Courage & Khazaka, Germany) immediately before and after skin barrier disruption and 3 hours and 6 hours after application, and the recovery rate of transepidermal water loss was calculated as follows.
(wherein, TEWLa is TEWL value immediately after barrier disruption, TEWLb is TEWL value at the baseline, and TEWLc is TEWL value at the indicated time.)

nude mice (SKH-1) [2] = experiment: Oxazolone chronic dermatitis animal model; type: in vivo; details: compared with the control group
Method: Efficacy of a selected material was evaluated by using a chronic dermatitis animal model. An animal model of which chronic dermatitis was induced by continuously applying oxaozolone, which is a kind of hapten, to the nude mice was used. […] In order to construct a chronic dermatitis animal model, 5% of oxazolone was applied to 6-week nude mice (SKH-1) and thus sensitized, and 0.1% of oxazolone was applied once every two days from a week after, resulting in inducing dermatitis symptom. The sample was applied to an animal after induction at an interval of once a day for three days, and various dermal functions and skin thickness change were observed. Finally, skin biopsy was conducted and histological observation was conducted.
As a positive control group used in the experiment, 0.05% of desonide, which is relatively low potency steroid, was used, and the transepidermal water loss, the moisture content in the stratum corneum, and skin thickness change were observed.

PAR-2 [3] = molecular target: T1, PAR-2 (Homo sapiens, UniProt P55085); experiment: Calcium immobilization assay (Calcium-4 assay kit); type: cell-based; set-up: expressed in transfected cells; details: HCT-15 PAR-2-overexpressed cell line, activating peptide (AP) as activator
T1 sequence (P55085 26-397): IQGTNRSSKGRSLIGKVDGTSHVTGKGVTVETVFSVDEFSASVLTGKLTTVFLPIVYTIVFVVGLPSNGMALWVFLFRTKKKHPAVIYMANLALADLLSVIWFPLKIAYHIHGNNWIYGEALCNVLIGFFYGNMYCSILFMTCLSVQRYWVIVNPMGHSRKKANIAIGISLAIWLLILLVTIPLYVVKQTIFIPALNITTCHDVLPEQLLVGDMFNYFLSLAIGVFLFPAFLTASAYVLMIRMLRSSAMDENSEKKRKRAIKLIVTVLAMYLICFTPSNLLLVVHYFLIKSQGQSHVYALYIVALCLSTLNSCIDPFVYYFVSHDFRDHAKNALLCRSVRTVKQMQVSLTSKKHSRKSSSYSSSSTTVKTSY
Method: In order to evaluate PAR-2 inhibitory activity of the synthesized material, first, an assay system capable of measuring the change in concentration of calcium ions in a cell in real-time was constructed, and then an evaluation was conducted by using the assay system. PAR-2 is a kind of G-protein coupled receptor (GPCR). When the PAR-2 is activated in the cell, phospholipase C-b (PLC-b) was activated to cleave phosphatidylinositol 4,5-bisphosphate (PIP2) into inositol triphosphate (IP3) and diacyl glycerol (DAG). The IP3 generated herein promotes secretion of calcium ions in an endoplasmic reticulum (ER), calcium ion reservoir in the cell, resulting in increasing calcium ions in the cell. An in vitro screening assay system capable of searching materials that may suppress the increase in concentration of calcium ions in the cell due to activation of PAR-2 was constructed based on the existing search results. As a PAR-2 activator used in the experiment, activating peptide (AP) was used. As a reagent for detecting the concentration of calcium ions in the cell, the Calcium-4 assay kit by Molecular Probe Company was used. HCT-15, a PAR-2-overexpressed cell line, was used as a cell line used in the experiment.
The PAR-2 inhibitory activity of the synthesized material was evaluated by using such the protocol, and the assay profile of Compound 98 synthesized in Example 1 was shown in FIG. 1.

PAR-2 [4] = molecular target: T1, PAR-2; experiment: PathHunter β-arrestin GPCR assay; type: cell-based; set-up: expressed in transfected cells; host or cells: KNRK (Kirsten Murine Sarcoma Virus transformed rat kidney epithelial cells); details: β-arrestin accumulation
Method: An in vitro assay protocol capable of detecting activation of PAR-2 was additively introduced besides the calcium immobilization assay, and activity of the selected material was measured. First, the PAR-2 inhibitory activity of Compound 98 was measured by using the PathHunter™ β-arrestin GPCR assay kit by DiscoveRx Company, capable of detecting accumulation of β-arrestin, which is an intercellular reaction material primarily generated by activation of PAR-2. As the measurement results, an IC50 value slightly different from the Calcium immobilization assay was observed (Table 1).

PAR-2 [5] = molecular target: T1, PAR-2; experiment: Confocal microscopy of PAR-2 activation in KNRK-PAR-2 cell line; type: cell-based; set-up: expressed in transfected cells; host or cells: KNRK (Kirsten Murine Sarcoma Virus transformed rat kidney epithelial cells); details: [Compound 98]=200 μM, [trypsin]=1 μM, [SLIGKV]=100 μM, KNRK-PAR-2 cells
Method: In order to visually confirm activation of PAR-2, a cell line having the following structure was prepared referring to the existing reference documents, and activation of PAR-2 was observed by using a confocal microscopy. As a cell line, Kirsten Murine Sarcoma Virus transformed rat kidney epithelial cell (KNRK cell) was used, which is a cell line where, normally, PAR-2 is not expressed. In the KNRK cell, flag epitope was tagged to an N-terminal and Myc epitope was tagged to a C-terminal, so that a stable transfected cell was constructed. Flag and Myc of the thus prepared KNRK-PAR-2 cell line were subjected to double staining, and activation or non-activation of PAR-2 was observed by using the confocal microscopy ([trypsin]=1 μM, [SLIGKV(AP)]=100 μM). When the PAR-2 was not activated, Flag and Myc were double-stained and thus appears yellow in the merged image. However, when the PAR-2 was activated, Flag was separated away and thus a red image was shown.

Substance: (2-methyl-1-m-tolyl-1H-benzo[d]imidazol-5-yl)(piperidin-1-yl)methanone [Compound 98]
- Recovery rate of transepidermal water loss after acute skin barrier disruption (nude mice (SKH-1) [1]; 1.0% applied to skin, 3 and 6 hours after application): rapid recovery
- Activity in promoting the recovery after skin barrier disruption (nude mice (SKH-1) [1]; overall conclusion, FIG. 3): best activity in promoting the recovery after skin barrier disruption
- Recovery of transepidermal water loss (nude mice (SKH-1) [2]; FIG. 4): promoted recovery
- Recovery of moisture content in the stratum corneum (nude mice (SKH-1) [2]; FIG. 5): promoted recovery
- PCNA positive keratinocyte (PCNA staining) (nude mice (SKH-1) [2]; FIG. 7): statically significant decrease
- IC50 (PAR-2 [3]): 243 µM
- IC50 (PAR-2 [4]): 95.3 µM
- Activation of PAR-2 (Flag/Myc double staining image) (PAR-2 [5]): activation of PAR-2 was suppressed
